# Laboratory results as given in ChEMBL document CHEMBL1201862, “PubChem BioAssay data set” (2004).
# Active and inactive are the calls of the source.
# What was measured:
# [1] = inhibitors of firefly luciferase expression or activity, dose response, H4 neuroglioma cells, luminescence (AID 1990); format: functional, cell-based
# [2] = system: HEK293; assay: Fluorescence-based counterscreen for potentiators or agonists of NPY-Y2: cell-based high-throughput dose response assay to identify inhibitors of cyclic nucleotide gated ion channel (CNGC) activity. In this assay, the parental HEK293 cell line transfected with a cyclic-nucleotide gated ion channel (CNGC)-based cAMP sensor is used to measure inhibition of isoproterenol-induced CNGC activity by test compound.; format: functional; conditions: Homo sapiens
# [3] = molecular target: Sphingosine 1-phosphate receptor 2 (Homo sapiens, UniProt O95136); assay: Dose Response Cell Based Assay for Antagonists of the S1P2 Receptor. [Related pubchem assays: 856, 736 ]; format: functional
# [4] = system: BJ; assay: cytotoxicity toward BJ-TERT fibroblasts, dose response, cell-based, RAS-independent, luminescence (AID 1933); format: functional; conditions: Homo sapiens
# [5] = molecular target: T1, Neuropeptide Y receptor type 2 (Homo sapiens, UniProt P49146); assay: Fluorescence-based cell-based high-throughput dose response assay for agonists of NPY-Y2. [Related pubchem assays: 1703 (Screening assay (CNGC inhibitors).), 1359 (Screening assay (NPY-Y2 potentiators or agonists).), 1304 (Screening assay (NPY-Y1 potentiators or agonists).), 1710 (Screening assay (NPY-Y2 agonists).), 1791 (Summary AID.)]; format: functional
# T1 sequence (P49146 whole entry): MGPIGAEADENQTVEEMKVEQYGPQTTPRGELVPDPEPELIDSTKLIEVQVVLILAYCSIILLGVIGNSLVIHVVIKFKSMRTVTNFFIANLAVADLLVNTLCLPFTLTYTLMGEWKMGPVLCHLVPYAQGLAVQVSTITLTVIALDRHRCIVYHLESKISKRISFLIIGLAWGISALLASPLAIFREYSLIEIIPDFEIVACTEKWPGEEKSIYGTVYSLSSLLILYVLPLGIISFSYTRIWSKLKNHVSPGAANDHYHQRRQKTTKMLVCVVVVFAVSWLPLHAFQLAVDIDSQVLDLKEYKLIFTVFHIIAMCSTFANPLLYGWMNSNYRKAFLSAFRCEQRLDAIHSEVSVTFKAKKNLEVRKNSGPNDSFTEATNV
# [6] = Luminescence Cell-Based Dose Response HTS to Identify Inhibitors of 5'UTR Stem-Loop Driven Prion Protein mRNA Translation in H4 Neuroglioblastoma Cells. [Related pubchem assays: 1827 (Project Summary), 1813 (Primary HTS)]; format: functional
# [7] = inhibitors of SNCA 5'UTR-driven reporter translation, confirmation, H4 neuroglioma cells, luminescence (AID 1988); format: functional, cell-based
# [8] = system: BJ; assay: cells; format: functional, cell-based; conditions: Homo sapiens
# [9] = Luminescence-based dose response cell-based high throughput screening assay for cytotoxic compounds using the IEC-6 intestinal epithelial cell line. [Related pubchem assays: 1858 (Summary AID.), 1825 (Counterscreen.), 1907 (Confirmation screen.)]; format: functional
# [10] = molecular target: T2, Neuropeptide Y receptor type 1 (Homo sapiens, UniProt P25929); assay: Fluorescence-based counterscreen for agonists of NPY-Y2: cell-based high-throughput dose response assay for agonists of NPY-Y1.; format: functional
# T2 sequence (P25929 whole entry): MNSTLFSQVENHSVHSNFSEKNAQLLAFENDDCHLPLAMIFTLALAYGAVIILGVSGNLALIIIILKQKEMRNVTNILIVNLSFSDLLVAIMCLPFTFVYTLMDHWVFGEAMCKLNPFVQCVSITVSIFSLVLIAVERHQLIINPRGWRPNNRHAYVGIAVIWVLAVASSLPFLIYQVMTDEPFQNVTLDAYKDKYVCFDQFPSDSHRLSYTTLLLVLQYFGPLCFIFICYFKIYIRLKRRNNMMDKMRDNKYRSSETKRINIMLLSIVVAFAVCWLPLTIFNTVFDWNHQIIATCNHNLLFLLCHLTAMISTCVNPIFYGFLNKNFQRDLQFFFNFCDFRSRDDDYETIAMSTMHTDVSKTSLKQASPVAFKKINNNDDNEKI
# [11] = system: BJ; assay: cytotoxicity toward BJ-TERT-LT-ST fibroblasts, dose response, cell-based, RAS-independent, luminescence (AID 1935); format: functional; conditions: Homo sapiens;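 further: BJ fibroblasts immortalized with TERT plus LT and ST oncogenes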
# [12] = cytotoxicity toward DRD oncogenic fibroblasts, dose response, cell-based, non-viral oncogenic, luminescence (AID 1934); format: functional; conditions: Homo sapiens
# [13] = cytotoxicity in HEK-293T cells, dose response, cytotoxicity control for TCR NF-kB inhibitor project, luminescence, T-cell screen hits (AID 489026); format: functional, cell-based;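 further: cells exposed to compound about 14 hours before the viability readout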
# [14] = system: HEK293; assay: inhibitors of LMP1-driven NF-kB reporter, dose response, cell-based, HEK293, luciferase, cherry-pick (AID 588343); format: functional; conditions: Homo sapiens
# [15] = molecular target: Latent membrane protein 1 (Human herpesvirus 4 (strain B95-8), UniProt P03230); assay: TES1-eGFP NF-kB reporter inhibition versus Tet-On dsRED, dose response, selectivity assay for LMP1 NF-kB inhibitor project, imaging, HEK293T, dual-color eGFP/dsRED, cherry-picks (AID 588398); format: functional, cell-based
# [16] = system: BJ; assay: cytotoxicity toward Ras-transformed BJeLR fibroblasts, dose response, cell-based, alamar blue fluorescence, cherrypicked samples (AID 2631); format: functional; conditions: Homo sapiens;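 further: confirmatory dose-response assay in RAS-dependent BJ fibroblasts engineered with TERT, LT and ST, with cytotoxicity read by fluorescence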
# [17] = system: INS1; assay: beta cell apoptosis inhibitors, cytokine rescue, dose response, luminescence, retest (AID 449756); format: functional, cell-based; conditions: Rattus norvegicus;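 further: cell death triggered by IL-1 beta plus TNF-alpha plus IFN-gamma mixture; protective hits raise ATP signal compared with cytokine alone wells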
# [18] = miR-122 activators in hepatoma reporter cells, dose response, cell-based, Huh7 psiCHECK-miR122, Renilla luciferase, cherry-picked (AID 651956); format: functional;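 further: huh7 hepatoma cells stably carrying a psiCHECK-2 miR-122 sensor plasmid; renilla luciferase signal reporting endogenous miR-122 activity after 48 h compound exposure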
# [19] = HEK293T cytotoxicity, dose response, cytotoxicity control for miR-122 modulator project, cell-based, inhibitor set, cherry-pick, set 2 (AID 720697); format: functional
# [20] = HEK293T cytotoxicity, dose response, cytotoxicity control for miR-122 modulator project, cell-based, activator set, cherry-pick (AID 720690); format: functional;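 further: HEK293T human cells scored for general mammalian cytotoxicity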
# [21] = system: INS1; assay: inhibitors of cytokine-induced nitrite release, dose response, cell-based, Griess absorbance, INS-1E, dry powder, set 2 (AID 488868); format: functional; conditions: Rattus norvegicus
# [22] = molecular target: Melanin-concentrating hormone receptor 1 (Homo sapiens, UniProt Q99705); assay: Late-stage fluorescence-based counterscreen for antagonists of the G-protein coupled receptor 7 (GPR7): cell-based dose response assay to identify antagonists of the melanin-concentrating hormone receptor 1 (MCHR1) Set 5.; format: functional
# [23] = molecular target: Calcium/calmodulin-dependent protein kinase type II subunit gamma (Homo sapiens, UniProt Q13555); format: functional
# [24] = molecular target: Calcium/calmodulin-dependent protein kinase type II subunit delta (Homo sapiens, UniProt Q13557); format: functional
# [25] = molecular target: Calcium/calmodulin-dependent protein kinase type II subunit beta (Homo sapiens, UniProt Q13554); format: functional
# [26] = molecular target: Tyrosine-protein kinase FRK (Homo sapiens, UniProt P42685); format: functional;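 further: FRK tested as one member of a kinome panel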
# [27] = molecular target: Serine/threonine-protein kinase pim-1 (Homo sapiens, UniProt P11309); format: functional
# [28] = molecular target: Cell division cycle 7-related protein kinase (Homo sapiens, UniProt O00311); format: functional;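 further: value obtained from a kinome-wide kinase panel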
# [29] = molecular target: Homeodomain-interacting protein kinase 2 (Homo sapiens, UniProt Q9H2X6); format: functional;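 further: measured within a kinome-wide kinase profiling panel, HIPK2 being one panel member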
# [30] = molecular target: MAP kinase-interacting serine/threonine-protein kinase 2 (Homo sapiens, UniProt Q9HBH9); format: functional
# [31] = molecular target: Interleukin-1 receptor-associated kinase 4 (Homo sapiens, UniProt Q9NWZ3); format: functional
# [32] = molecular target: Glycogen synthase kinase-3 beta (Homo sapiens, UniProt P49841); format: functional;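 further: value comes from a broad kinome profiling panel, with GSK3B as the panel member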
# [33] = molecular target: cAMP-dependent protein kinase catalytic subunit alpha (Homo sapiens, UniProt P17612); format: functional
# [34] = molecular target: Dual specificity protein kinase CLK4 (Homo sapiens, UniProt Q9HAZ1); format: functional
# [35] = molecular target: Mitogen-activated protein kinase kinase kinase kinase 4 (Homo sapiens, UniProt O95819); format: functional
# Chain of Mitogen-activated protein kinase kinase kinase kinase 4 (O95819 whole entry): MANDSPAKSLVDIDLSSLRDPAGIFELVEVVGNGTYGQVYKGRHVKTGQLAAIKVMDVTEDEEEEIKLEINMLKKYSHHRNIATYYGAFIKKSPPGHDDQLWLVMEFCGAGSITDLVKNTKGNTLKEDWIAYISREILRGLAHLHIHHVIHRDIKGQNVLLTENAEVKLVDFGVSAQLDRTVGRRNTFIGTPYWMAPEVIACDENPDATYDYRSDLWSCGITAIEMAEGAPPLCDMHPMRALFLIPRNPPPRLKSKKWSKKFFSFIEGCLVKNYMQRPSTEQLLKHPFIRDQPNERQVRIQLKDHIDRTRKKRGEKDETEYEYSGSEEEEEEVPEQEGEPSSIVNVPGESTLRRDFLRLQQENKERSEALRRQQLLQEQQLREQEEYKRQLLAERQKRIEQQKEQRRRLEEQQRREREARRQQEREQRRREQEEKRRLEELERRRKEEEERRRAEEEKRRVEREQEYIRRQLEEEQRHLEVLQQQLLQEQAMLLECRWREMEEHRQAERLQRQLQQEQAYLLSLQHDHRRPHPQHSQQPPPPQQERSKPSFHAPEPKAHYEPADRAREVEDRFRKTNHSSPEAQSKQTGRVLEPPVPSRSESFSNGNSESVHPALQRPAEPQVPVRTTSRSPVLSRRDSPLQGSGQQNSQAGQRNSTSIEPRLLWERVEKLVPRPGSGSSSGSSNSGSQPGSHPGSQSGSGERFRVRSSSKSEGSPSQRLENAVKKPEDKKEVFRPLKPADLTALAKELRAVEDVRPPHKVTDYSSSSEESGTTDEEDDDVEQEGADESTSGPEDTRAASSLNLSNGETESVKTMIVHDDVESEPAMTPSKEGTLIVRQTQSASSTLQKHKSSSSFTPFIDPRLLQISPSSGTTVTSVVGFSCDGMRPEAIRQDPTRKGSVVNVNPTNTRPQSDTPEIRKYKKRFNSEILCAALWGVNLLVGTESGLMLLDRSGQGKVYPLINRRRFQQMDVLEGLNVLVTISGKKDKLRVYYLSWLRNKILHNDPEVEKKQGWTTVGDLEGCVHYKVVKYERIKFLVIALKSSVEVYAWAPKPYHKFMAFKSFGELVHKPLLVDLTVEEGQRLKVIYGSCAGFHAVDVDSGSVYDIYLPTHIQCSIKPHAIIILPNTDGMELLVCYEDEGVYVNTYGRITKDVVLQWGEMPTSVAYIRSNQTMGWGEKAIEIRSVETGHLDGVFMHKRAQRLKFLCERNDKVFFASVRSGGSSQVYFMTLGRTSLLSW
# Chain of Interleukin-1 receptor-associated kinase 4 (Q9NWZ3 whole entry): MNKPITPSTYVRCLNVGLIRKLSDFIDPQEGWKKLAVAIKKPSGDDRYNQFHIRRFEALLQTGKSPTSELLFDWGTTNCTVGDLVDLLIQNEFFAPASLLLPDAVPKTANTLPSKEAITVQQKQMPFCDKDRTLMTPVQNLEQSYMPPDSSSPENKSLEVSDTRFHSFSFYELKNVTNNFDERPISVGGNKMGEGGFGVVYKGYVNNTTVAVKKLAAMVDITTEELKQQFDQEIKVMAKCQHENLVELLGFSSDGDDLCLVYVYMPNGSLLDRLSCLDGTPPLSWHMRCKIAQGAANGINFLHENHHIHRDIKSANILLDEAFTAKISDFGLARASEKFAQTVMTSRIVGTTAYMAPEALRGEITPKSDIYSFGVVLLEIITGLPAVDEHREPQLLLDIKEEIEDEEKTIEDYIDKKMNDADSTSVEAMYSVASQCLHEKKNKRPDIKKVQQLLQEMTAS
# Chain of Cell division cycle 7-related protein kinase (O00311 whole entry): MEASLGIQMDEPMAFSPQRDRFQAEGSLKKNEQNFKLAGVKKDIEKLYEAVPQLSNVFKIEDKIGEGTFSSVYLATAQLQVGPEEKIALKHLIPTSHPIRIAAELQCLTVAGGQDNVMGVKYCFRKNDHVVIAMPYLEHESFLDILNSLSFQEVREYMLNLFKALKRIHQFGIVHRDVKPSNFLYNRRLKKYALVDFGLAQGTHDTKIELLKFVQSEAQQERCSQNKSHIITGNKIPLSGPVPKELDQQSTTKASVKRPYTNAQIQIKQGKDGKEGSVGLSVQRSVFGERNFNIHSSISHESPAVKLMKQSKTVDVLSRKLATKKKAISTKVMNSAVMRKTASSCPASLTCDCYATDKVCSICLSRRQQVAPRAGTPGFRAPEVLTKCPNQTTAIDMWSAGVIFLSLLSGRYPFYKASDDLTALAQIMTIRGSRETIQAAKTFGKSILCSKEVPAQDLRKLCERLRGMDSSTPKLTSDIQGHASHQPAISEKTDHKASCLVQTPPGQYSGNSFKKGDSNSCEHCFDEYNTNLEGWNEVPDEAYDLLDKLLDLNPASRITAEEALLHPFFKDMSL
# Chain of Tyrosine-protein kinase FRK (P42685 whole entry): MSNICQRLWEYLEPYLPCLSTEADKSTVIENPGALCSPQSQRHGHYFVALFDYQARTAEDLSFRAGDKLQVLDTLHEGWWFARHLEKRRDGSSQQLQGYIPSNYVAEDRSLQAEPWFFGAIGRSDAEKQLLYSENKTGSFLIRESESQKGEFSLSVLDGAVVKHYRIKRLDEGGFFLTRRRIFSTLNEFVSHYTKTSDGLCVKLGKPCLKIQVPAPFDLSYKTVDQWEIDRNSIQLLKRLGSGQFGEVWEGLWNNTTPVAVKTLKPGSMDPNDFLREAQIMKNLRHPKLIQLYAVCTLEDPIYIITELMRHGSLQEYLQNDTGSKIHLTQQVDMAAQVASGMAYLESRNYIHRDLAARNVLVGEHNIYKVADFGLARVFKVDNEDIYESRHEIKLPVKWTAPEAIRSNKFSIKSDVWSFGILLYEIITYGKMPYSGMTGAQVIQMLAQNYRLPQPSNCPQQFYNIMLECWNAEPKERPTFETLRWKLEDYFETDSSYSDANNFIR
# Chain of Melanin-concentrating hormone receptor 1 (Q99705 whole entry): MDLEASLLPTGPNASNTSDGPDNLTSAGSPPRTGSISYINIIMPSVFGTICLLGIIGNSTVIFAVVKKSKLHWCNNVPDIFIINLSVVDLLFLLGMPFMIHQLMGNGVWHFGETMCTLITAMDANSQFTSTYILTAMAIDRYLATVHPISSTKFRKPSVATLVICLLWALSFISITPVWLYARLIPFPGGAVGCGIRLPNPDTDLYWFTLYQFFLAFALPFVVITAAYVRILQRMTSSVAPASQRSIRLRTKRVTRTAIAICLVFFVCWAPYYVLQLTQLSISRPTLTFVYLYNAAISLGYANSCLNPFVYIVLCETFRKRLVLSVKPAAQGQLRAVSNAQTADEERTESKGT
# Chain of Calcium/calmodulin-dependent protein kinase type II subunit delta (Q13557 whole entry): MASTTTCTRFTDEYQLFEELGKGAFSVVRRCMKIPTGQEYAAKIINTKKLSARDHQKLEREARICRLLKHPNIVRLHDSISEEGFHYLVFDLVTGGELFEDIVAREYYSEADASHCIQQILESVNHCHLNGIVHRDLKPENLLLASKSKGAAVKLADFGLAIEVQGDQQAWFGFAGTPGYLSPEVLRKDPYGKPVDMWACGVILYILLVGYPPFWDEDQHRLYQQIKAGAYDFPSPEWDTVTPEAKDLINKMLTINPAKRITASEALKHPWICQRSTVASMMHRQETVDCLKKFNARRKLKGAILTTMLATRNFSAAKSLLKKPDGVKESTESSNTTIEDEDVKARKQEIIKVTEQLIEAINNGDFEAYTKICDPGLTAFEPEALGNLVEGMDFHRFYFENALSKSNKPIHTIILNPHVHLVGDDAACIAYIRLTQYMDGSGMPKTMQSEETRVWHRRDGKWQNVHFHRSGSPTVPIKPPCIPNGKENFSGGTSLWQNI
# Chain of Serine/threonine-protein kinase pim-1 (P11309 whole entry): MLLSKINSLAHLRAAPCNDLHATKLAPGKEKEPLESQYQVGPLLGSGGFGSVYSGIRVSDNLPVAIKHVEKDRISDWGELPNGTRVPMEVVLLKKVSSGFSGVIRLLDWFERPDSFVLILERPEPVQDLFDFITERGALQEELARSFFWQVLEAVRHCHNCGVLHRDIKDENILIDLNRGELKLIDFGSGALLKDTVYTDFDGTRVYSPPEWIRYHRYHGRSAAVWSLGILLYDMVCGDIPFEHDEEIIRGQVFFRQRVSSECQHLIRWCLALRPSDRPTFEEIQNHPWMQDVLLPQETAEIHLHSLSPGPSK
# Chain of Calcium/calmodulin-dependent protein kinase type II subunit beta (Q13554 whole entry): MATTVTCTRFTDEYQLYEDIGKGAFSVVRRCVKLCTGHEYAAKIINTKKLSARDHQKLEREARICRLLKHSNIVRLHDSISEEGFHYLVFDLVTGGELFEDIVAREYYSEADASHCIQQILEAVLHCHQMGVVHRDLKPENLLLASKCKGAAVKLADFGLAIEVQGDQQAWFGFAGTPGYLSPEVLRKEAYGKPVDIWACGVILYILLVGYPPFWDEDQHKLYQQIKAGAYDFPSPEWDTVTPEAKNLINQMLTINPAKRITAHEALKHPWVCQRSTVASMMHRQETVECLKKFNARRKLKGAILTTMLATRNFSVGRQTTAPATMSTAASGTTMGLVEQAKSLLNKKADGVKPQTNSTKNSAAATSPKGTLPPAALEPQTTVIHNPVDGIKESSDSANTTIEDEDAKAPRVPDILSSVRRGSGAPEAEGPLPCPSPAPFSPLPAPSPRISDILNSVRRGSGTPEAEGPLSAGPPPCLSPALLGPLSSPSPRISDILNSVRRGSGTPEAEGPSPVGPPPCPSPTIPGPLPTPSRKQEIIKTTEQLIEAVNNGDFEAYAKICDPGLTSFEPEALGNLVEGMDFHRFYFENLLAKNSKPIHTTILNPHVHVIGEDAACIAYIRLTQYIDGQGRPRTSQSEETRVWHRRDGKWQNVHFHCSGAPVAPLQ
# Chain of Sphingosine 1-phosphate receptor 2 (O95136 whole entry): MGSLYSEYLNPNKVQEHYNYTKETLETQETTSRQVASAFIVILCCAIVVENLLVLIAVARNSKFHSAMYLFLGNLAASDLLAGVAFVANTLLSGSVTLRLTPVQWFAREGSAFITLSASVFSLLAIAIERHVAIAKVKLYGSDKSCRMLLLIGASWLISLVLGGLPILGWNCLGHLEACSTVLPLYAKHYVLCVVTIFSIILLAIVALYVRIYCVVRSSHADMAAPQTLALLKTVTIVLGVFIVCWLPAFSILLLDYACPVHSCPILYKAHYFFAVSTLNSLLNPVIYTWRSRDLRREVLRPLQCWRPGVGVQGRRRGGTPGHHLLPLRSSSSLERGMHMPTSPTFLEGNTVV
compound,measurement,setting,value
O=C(NC(Nc1nc2ccc([N+](=O)[O-])cc2s1)(C(F)(F)F)C(F)(F)F)c1ccccc1,EC50,[1],0.394 µM (active)
same,EC50,[2],> 35.4 µM (not active)
same,IC50,[3],0.682 µM (active)
same,EC50,[4],1.41 µM (active)
same,EC50,[5],31.9 µM (not active)
same,EC50,[6],7.5 µM (active)
same,EC50,[7],0.449 µM (active)
same,EC50,[8],1.34 µM (active)
same,IC50,[9],1.03 µM (active)
same,EC50,[10],35.3 µM (not active)
same,EC50,[11],2.85 µM (inconclusive)
same,EC50,[12],1.66 µM (active)
same,IC50,[13],> 80 µM (inactive)
same,AC50,[14],0.208 µM (active)
same,AC50,[15],0.816 µM (active)
same,EC50,[16],0.727 µM (active)
same,AC50,[17],0.298 µM (active)
same,AC50,[18],1.41 µM (active)
same,AC50,[19],< 0.195 µM (active)
same,AC50,[20],0.546 µM (active)
C[C@@H]1CN([C@@H](C)CO)C(=O)c2cccc(NS(=O)(=O)c3ccccc3)c2O[C@H]1CN(C)Cc1ccc(C(F)(F)F)cc1,AC50,[21],242 µM (active)
COc1ccc(Oc2c(Cl)cnn(C3c4ccccc4CCc4ccccc43)c2=O)cc1,IC50,[22],> 20 µM (inactive)
CCCC(=O)c1ccc(NCc2c[nH]nc2-c2ccc(C(F)(F)F)cc2)cc1,Ki,[23],3.98 µM (active)
same,Ki,[24],3.98 µM (active)
same,Ki,[25],1.26 µM (active)
same,Ki,[26],2 µM (active)
O=c1cc(-c2ccncc2)nc(NCc2cc(F)cc(F)c2)[nH]1,Ki,[27],6.31 µM (active)
same,Ki,[28],0.00631 µM (active)
same,Ki,[29],0.631 µM (active)
same,Ki,[30],0.398 µM (active)
same,Ki,[31],2 µM (active)
same,Ki,[32],0.2 µM (active)
same,Ki,[33],6.31 µM (active)
same,Ki,[34],0.0126 µM (active)
same,Ki,[35],0.0631 µM (active)
